Counter-ions that a name gives are not always drawn. Like-named read-outs stand apart in the source and are kept apart here.
Legend:
[1] = tested on: primary cortico-hippocampal neuron cultures; assay: MTT in primary screening
Aβ1-40 = Aβ1-40 content in conditioned medium of primary cortico-hippocampal neuron cultures from Tg2576 mice (ELISA; primary and secondary dose-response screening); format: cell-based, mouse; conditions: for activity at 100 µM: Mus musculus, Neuron, 24 h, drug 100 μM, read-out: Ab1-40 (% of ctl); for reduced Aβ1-40: <85% of ctl
How it was run: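 Primary cortico-hippocampal neurons from embryonic Tg2576 mice were plated at 1.0×10^5 cells per well on poly-D-lysine-coated 96-well plates in Neurobasal with 2% B27, 0.5 mM L-glutamine and 1% penicillin-streptomycin. Cultures received drug in 1% DMSO, and Aβ1-40 in the conditioned medium was measured by BioSource ELISA 24 hours after treatment, relative to vehicle controls.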

[2] = tested on: primary cortico-hippocampal neuron cultures; assay: lactate dehydrogenase (LDH) activity assay in parallel neuron cultures
Aβ1-42 = Aβ1-42 content in conditioned medium of primary cortico-hippocampal neuron cultures from Tg2576 mice (ELISA; primary and secondary dose-response screening); format: cell-based, mouse; conditions: for activity at 100 µM: Mus musculus, Neuron, 24 h, drug 100 μM, read-out: Ab1-42 (% of ctl); for reducing Aβ1-42: <85% of ctl
How it was run: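 Primary cortico-hippocampal neurons from embryonic Tg2576 mouse brain were seeded on poly-D-lysine-coated 96-well plates at 1.0×10^5 cells per well in serum-free Neurobasal medium with 2% B27, 0.5 mM L-glutamine and 1% penicillin-streptomycin. For primary screening, duplicate wells received 100 μM drug (1% DMSO final). Vehicle-treated cultures served as controls, and Aβ1-42 in conditioned medium was measured by commercial ELISA.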

[3] = Primary Screening, table sorted by Aβ1-40
[4] = primary screening, table sorted by Aβ1-42
[5] = primary screening, Tg2576 neuron cultures, table sorted by Aβ1-42

SMILES	MTT (% of ctl) [1, 3]	MTT (% of ctl) [1, 4]	activity at 100 µM (Aβ1-40; [3]) [%]	activity at 100 µM (Aβ1-40; [5]) [%]	reduced Aβ1-40 (Aβ1-40; primary screening)	LDH (% of ctl) [2, 3]	LDH (% of ctl) [2, 4]	activity at 100 µM (Aβ1-42; [3]) [%]	activity at 100 µM (Aβ1-42; [5]) [%]	reducing Aβ1-42 (Aβ1-42; primary screening)
CC(C)(Sc1cc(C(C)(C)C)c(O)c(C(C)(C)C)c1)Sc1cc(C(C)(C)C)c(O)c(C(C)(C)C)c1 [Probucol]	94.8 % of ctl	94.8 % of ctl	76.8	76.8	reduced Aβ1-40	109.3 % of ctl	109.3 % of ctl	136	136	
CCN(CC)CCNC(=O)c1ccc(N)cc1 [Procainamide Hydrochloride]	96.8 % of ctl	96.8 % of ctl	118	118		111.1 % of ctl	111.1 % of ctl	109	109	
CC(C)NCC(O)c1ccc2ccccc2c1 (stereo not shown) [Pronetalol Hydrochloride]	88.8 % of ctl	88.8 % of ctl	88	88		108.9 % of ctl	108.9 % of ctl	94.6	94.6	
CCCNCC(O)COc1ccccc1C(=O)CCc1ccccc1 (stereo not shown) [Propafenone Hydrochloride]	95.2 % of ctl	95.2 % of ctl	36.3	36.3	reduced Aβ1-40	113.7 % of ctl	113.7 % of ctl	56.4	56.4	useful in reducing Aβ1-42
CCOC(=O)[C@H](CCc1ccccc1)N[C@@H](C)C(=O)N1Cc2ccccc2C[C@H]1C(=O)O [Quinapril Hydrochloride]	102.4 % of ctl	102.4 % of ctl	119	119		101.8 % of ctl	101.8 % of ctl	118	118	
C=C[C@H]1C[N@@]2CC[C@H]1C[C@@H]2[C@@H](O)c1ccnc2ccc(OC)cc12 [Quinidine Gluconate]	46.8 % of ctl	46.8 % of ctl	63.3	63.3	reduced Aβ1-40	357.6 % of ctl	357.6 % of ctl	70	70	useful in reducing Aβ1-42
CCOC(=O)[C@H](CCc1ccccc1)N[C@@H](C)C(=O)N1[C@H](C(=O)O)C[C@@H]2CCC[C@@H]21 [Ramipril]	102.9 % of ctl	102.9 % of ctl	107	107		96.4 % of ctl	96.4 % of ctl	105	105	
COC(=O)[C@H]1[C@H]2C[C@H]3c4[nH]c5ccccc5c4CCN3C[C@H]2CC[C@@H]1O [Rauwolscine Hydrochloride]	98.0 % of ctl	98.0 % of ctl	103	103		109.4 % of ctl	109.4 % of ctl	74.3	74.3	useful in reducing Aβ1-42
CC(C)c1nc(N(C)S(C)(=O)=O)nc(-c2ccc(F)cc2)c1/C=C/[C@@H](O)C[C@@H](O)CC(=O)O [Rosuvastatin]	103.8 % of ctl	103.8 % of ctl	83.6	83.6	reduced Aβ1-40	298.7 % of ctl	298.7 % of ctl	65.6	65.6	useful in reducing Aβ1-42
COc1cc2ccc(=O)oc2cc1O [Scopoletin]	99.7 % of ctl	99.7 % of ctl	71.9	71.9	reduced Aβ1-40	106.2 % of ctl	106.2 % of ctl	109	109	
CCC(C)(C)C(=O)O[C@H]1C[C@@H](C)C=C2C=C[C@H](C)[C@H](CC[C@@H]3C[C@@H](O)CC(=O)O3)[C@H]21 [Simvastatin]	93.4 % of ctl	93.4 % of ctl	28	28		129.9 % of ctl	129.9 % of ctl	122	122	
CC(=O)S[C@@H]1CC2=CC(=O)CC[C@]2(C)[C@H]2CC[C@@]3(C)[C@@H](CC[C@@]34CCC(=O)O4)[C@H]12 [Spironolactone]	117.0 % of ctl	117.0 % of ctl	60.4	60.4	reduced Aβ1-40	100.6 % of ctl	100.6 % of ctl	70.7	70.7	useful in reducing Aβ1-42
COc1cc([S+](C)[O-])ccc1-c1nc2ncccc2[nH]1 (stereo not shown) [Sulmazole]	115.0 % of ctl	115.0 % of ctl	116	116		111.1 % of ctl	111.1 % of ctl	93.2	93.2	

Reference: patent US20100029654A1, “CARDIOVASCULAR COMPOSITIONS AND USE OF THE SAME FOR THE TREATMENT OF ALZHEIMER'S DISEASE” (MOUNT SINAI SCHOOL OF MEDICINE, priority 2006, published 2010)
